According to US20210330611A1, “THERAPY FOR NEUROLOGICAL DISEASES/DISORDERS” (priority 2020, published 2021):
Structures can show the parent of a compound that is named as a salt. Where two headings read alike, the source gives them in different places.

Columns and labels:
[1] = system: LPS-induced microglia activation; assay: Image-based assay of LPS-induced microglia activation (HTS and dose response); assay type: cell-based, rat; settings: for inhibition at 10 µM: Rattus norvegicus, Microglia, read-out: LPS % inhibition
[2] = system: primary rat microglia; assay: Cell toxicity (dead cells, size <150 μm2) in coated fibrin (cFib) assay; settings: primary microglia HTS;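 note: share of dead cells sized under 150 µm2 at 10 µM in fibrin-stimulated microglia HTS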
[3] = system: fibrin- and LPS-induced microglia activation; assay: cells; assay type: cell-based, rat
[4] = system: fibrin-induced microglia activation; assay: Image-based assay of fibrin-induced microglia activation (HTS and dose response); assay type: cell-based, rat; settings: primary microglia HTS, fibrin stimulation; for inhibition at 10 µM: Rattus norvegicus, Microglia, read-out: Fibrin % inhibition
[5] = system: primary rat microglia
[6] = primary microglia HTS, LPS stimulation, compounds at 10 μM
[7] = fibrin assay, dead cells (size <150 μm2)
[8] = quadrant by fibrin and LPS inhibition, HTS at 10 μM
[9] = fibrin stimulation, cell size <150 μm2 as marker of toxicity
[10] = classification by fibrin and LPS inhibition in HTS
[11] = cell size >800 μm2 as marker of activation
[12] = 48 h, primary microglia HTS, LPS stimulation, cell size >800 μm2 as marker of activation

Row | Structure (SMILES) | inhibition at 10 µM [1, 6] [%] | Fibrin % cell toxicity [2, 7] [%] | Quadrant (FIG. 5b) [3, 8] | inhibition at 10 µM ([4]; compounds at 10 μM) [%] | LPS % cell toxicity ([5]; rat) [%] | inhibition at 10 µM ([1]; 48 h) [%] | Fibrin % cell toxicity [2, 9] [%] | Quadrant (FIG. 5b) [3, 10] | inhibition at 10 µM [4, 11] [%] | inhibition at 10 µM [1, 12] [%] | LPS % inhibition [1] [%] | Fibrin % inhibition [4, 11] [%] | LPS % cell toxicity [5] [%]
1 | CN1CCC(=C2c3ccccc3Sc3ccccc32)CC1 [Pimethixene Maleate] | 92 | 6 | Q2 | 112 | 2 |  |  |  |  |  |  |  | 
2 | CC(C)NCC(O)COc1cccc2[nH]ccc12 (centres unmarked) [Pindolol] |  |  |  |  | 1 | 24 | 1 | Q4 | -13 |  |  |  | 
3 | CCc1ccc(CCOc2ccc(CC3SC(=O)NC3=O)cc2)nc1 (centres unmarked) [Pioglitazone] |  |  |  |  | 1 | 33 | 1 | Q4 | 2 |  |  |  | 
4 | NC(=O)C1(N2CCCCC2)CCN(CCCC(=O)c2ccc(F)cc2)CC1 [Pipamperone] |  |  |  |  | 0 |  | 1 | Q4 | -4 | 8 |  |  | 
5 | CCN1CCCC(OC(=O)C(c2ccccc2)c2ccccc2)C1 (centres unmarked) [Piperidolate Hydrochloride] |  |  |  |  | 0 |  | 0 | Q4 | -21 | 8 |  |  | 
6 | O=C(/C=C/C=C/c1ccc2c(c1)OCO2)N1CCCCC1 [Piperine] |  |  |  |  | 0 | 10 | 1 | Q4 | -13 |  |  |  | 
7 | NC(=O)CN1CCCC1=O [Piracetam] |  |  |  |  | 0 | 9 | 0 | Q4 | -21 |  |  |  | 
8 | Cc1nc2ccccn2c(=O)c1CCN1CCC(C(=O)c2ccc(F)cc2)CC1 [Pirenperone] |  |  |  |  | 0 | 20 | 1 | Q4 | 2 |  |  |  | 
9 | Cc1cc(CC(C)CC(C)(C)C)n(O)c(=O)c1.NCCO (centres unmarked) [Piroctone Olamine] |  |  |  |  |  |  | 1 | Q4 |  |  | 39 | 44 | 1
10 | CCn1cc(C(=O)O)c(=O)c2cnc(N3CCCC3)nc21 [Piromidic Acid] |  |  |  |  | 0 | 7 | 1 | Q4 | -30 |  |  |  | 
11 | CN1C(C(=O)Nc2ccccn2)=C(O)c2ccccc2S1(=O)=O [Piroxicam] |  |  |  |  | 0 | 19 | 1 | Q4 | 4 |  |  |  | 
12 | CCCCOc1ccc(OCCCN2CCOCC2)cc1 [Pramocaine] |  |  |  |  | 0 | 13 | 0 | Q4 | 14 |  |  |  | 
13 | CC(C(=O)O)c1ccc2c(c1)Cc1cccnc1O2 (centres unmarked) [Pranoprofen] |  |  |  |  | 0 |  | 1 | Q4 | -14 | 8 |  |  | 
14 | CC[C@H](C)C(=O)O[C@H]1C[C@H](O)C=C2C=C[C@H](C)[C@H](CC[C@@H](O)C[C@@H](O)CC(=O)O)[C@H]21 [Pravastatin Sodium] |  |  |  |  | 0 |  | 1 | Q4 |  |  | 11 | 21 | 
15 | CC[C@H](C)C(=O)O[C@H]1C[C@H](O)C=C2C=C[C@H](C)[C@H](CC[C@@H](O)C[C@@H](O)CC(=O)O)[C@H]21 [Pravastatin] |  |  |  |  | 0 | 10 | 1 | Q4 |  |  |  | 10 | 
16 | C[C@]12C=CC(=O)C=C1CC[C@@H]1[C@@H]2[C@@H](O)C[C@@]2(C)[C@H]1CC[C@]2(O)C(=O)COC(=O)CCC(=O)O [Prednisolone Hemisuccinate] | 96 | 3 | Q2 | 106 | 3 |  |  |  |  |  |  |  | 
17 | CC(=O)[C@H]1CC[C@H]2[C@@H]3CC=C4C[C@@H](O)CC[C@]4(C)[C@H]3CC[C@]12C [Pregnenolone] |  |  |  |  |  |  | 1 | Q4 |  |  | 12 | −11 | 0
18 | OC(CCN1CCCCC1)(c1ccccc1)c1ccccc1 [Pridinol] |  |  |  |  | 0 | 4 | 1 | Q4 | -18 |  |  |  | 
19 | CCCNC(C)C(=O)Nc1ccccc1C (centres unmarked) [Prilocaine] |  |  |  |  | 0 | 12 | 0 | Q4 | -3 |  |  |  | 

Row | Structure (SMILES) | inhibition at 10 µM [1, 6] [%] | Fibrin % cell toxicity [2, 7] [%] | Quadrant (FIG. 5b) [3, 8] | inhibition at 10 µM ([4]; compounds at 10 μM) [%] | LPS % cell toxicity ([5]; rat) [%] | inhibition at 10 µM ([1]; 48 h) [%] | Fibrin % cell toxicity [2, 9] [%] | Quadrant (FIG. 5b) [3, 10] | inhibition at 10 µM [4, 11] [%] | inhibition at 10 µM [1, 12] [%] | LPS % inhibition [1] [%] | Fibrin % inhibition [4, 11] [%] | LPS % cell toxicity [5] [%]
20 | CC(C)(Sc1cc(C(C)(C)C)c(O)c(C(C)(C)C)c1)Sc1cc(C(C)(C)C)c(O)c(C(C)(C)C)c1 [Probucol] |  |  |  |  | 0 | -1 | 0 | Q4 | 12 |  |  |  | 
21 | CCN(CC)CCOC(=O)c1ccc(N)cc1 [Procaine, Novocain] |  |  |  |  |  |  | 0 | Q4 |  |  | 25 | −10 | 0
22 | CCC(NC(C)C)C(O)c1ccc(O)c2[nH]c(=O)ccc12 (centres unmarked) [Procaterol] |  |  |  |  | 0 | 21 | 1 | Q4 | 16 |  |  |  | 
23 | O=C(O)CCc1nc2ccccc2[nH]1 [Procodazole] |  |  |  |  | 0 | 15 | 1 | Q4 | -15 |  |  |  | 
24 | OC(CCN1CCCC1)(c1ccccc1)C1CCCCC1 (centres unmarked) [Procyclidine] |  |  |  |  | 1 | 26 | 1 | Q4 | 0 |  |  |  | 
25 | Nc1ccc2cc3ccc(N)cc3nc2c1 [Proflavine] | 132 | 82 | Q2 | 113 | 59 |  |  |  |  |  |  |  | 
26 | CCCN(CCC)C(=O)C(CCC(=O)O)NC(=O)c1ccccc1 (centres unmarked) [Proglumide] |  |  |  |  | 0 | -1 | 1 | Q4 | -4 |  |  |  | 
27 | CC(C)NC(=N)NC(=N)Nc1ccc(Cl)cc1 [Proguanil; Chlorguanide Hydrochloride] |  |  |  |  |  |  | 0 | Q4 |  |  | 20 | −7 | 1
28 | CC(CN1c2ccccc2Sc2ccccc21)N(C)C (centres unmarked) [Promethazine] |  |  |  |  | 0 | 5 | 0 | Q4 | -30 |  |  |  | 
29 | CC(C)[N+](C)(CCOC(=O)C1c2ccccc2Oc2ccccc21)C(C)C [Propantheline] |  |  |  |  | 0 | 20 | 1 | Q4 | -7 |  |  |  | 
30 | CCCOc1ccc(C(=O)OCCN(CC)CC)cc1N [Proparacaine] |  |  |  |  | 0 | 13 | 1 | Q4 | -6 |  |  |  | 
31 | CNC(=O)Oc1ccccc1OC(C)C [Propoxur] |  |  |  |  | 0 |  | 1 | Q4 | -51 | 8 |  |  | 
32 | CCCOc1cc(N)ccc1C(=O)OCCN(CC)CC [Propoxycaine] |  |  |  |  | 0 | 14 | 0 | Q4 | 13 |  |  |  | 
33 | C[C@@H]1O[C@@H](O[C@@H]2C=C3CC[C@@H]4[C@H](CC[C@]5(C)[C@@H](c6ccc(=O)oc6)CC[C@]45O)[C@@]3(C)CC2)[C@H](O)[C@H](O)[C@H]1O [Proscillaridin] |  |  |  |  | 0 | 16 | 1 | Q4 | 8 |  |  |  | 
34 | CCCc1cc(C(N)=S)ccn1 [Protionamide, Ektebin] |  |  |  |  |  |  | 1 | Q4 |  |  | 12 | −18 | 0
35 | C=CC1=C(C)c2cc3[nH]c(cc4nc(cc5[nH]c(cc1n2)c(C)c5CCC(=O)O)C(CCC(=O)O)=C4C)c(C)c3C=C [Protoporphyrin Ix] |  |  |  |  | 0 | 2 | 1 | Q4 | -70 |  |  |  | 
36 | CC(O)Cn1cnc2c1c(=O)n(C)c(=O)n2C (centres unmarked) [Proxyphylline] |  |  |  |  | 0 | 11 | 1 | Q4 | -21 |  |  |  | 
37 | Cc1oc(=O)oc1CN1CCN(c2cc3c(cc2F)c(=O)c(C(=O)O)c2n3C(C)S2)CC1 (centres unmarked) [Prulifloxacin] |  |  |  |  | 0 | 16 | 1 | Q4 | 7 |  |  |  | 
